The target of one assay is T1, ovine COX-1 (Ovis aries, UniProt P05979).
T1 construct: purchased
The assay can be described thus: COX-1 inhibitory activity, colourimetric COX inhibitor screening assay kit. The settings on record: ovine COX-1; read-out: IC50 (COX-1). The class given is biochemical. As to the method:
(§1) The inhibitory COX activity was assayed colourimetrically by examining the inhibition of the ovine COX-1 and human recombinant COX-2 enzymes as described by George et al.[38], using a COX inhibitor screening assay kit. The detailed procedures were described in the supplementary file.
(§2) The inhibitory COX activity was assayed colourimetrically by examining the inhibition of the ovine COX-1 and human recombinant COX-2 enzymes as described by George et al. ^2, using a COX inhibitory screening assay kit. This assay determines the COX peroxidase activity by monitoring the appearance of N,N,N',N'-tetramethyl-p-phenylenediamine (TMPD). Assay buffer (150 μL 0.1 M Tris–HCl pH 8.0), 10 μL heme and 10μL enzyme (COX-1 or COX-2) were added in each well. Ten μL of each tested sample concentration was added to each well and incubated for 15 minutes at 37°C. After incubation, 20 μL of TMPD was added to each well. For initiating the reaction, 10 μL 10 mM arachidonic acid was added and the plates were further incubated for another 2 minutes at 37°C. For terminating the reaction, 50 μL 1 N HCl and saturated stannous chloride were added.
(§3) Reaction mixture containing assay buffer and heme acted as the blank and a mixture with either COX-1 or COX-2 assay buffer and heme acted as the 100% initial activity (IA). […] The absorbances of oxidized TMPD (blue colour) were read in ELISA plate reader at 590 nm. The % inhibition was calculated using the following formula:
(§4) COX % Inhibition= [(100%IA−Inhibitor)/ 100% IA x 100]. Where, IA: 100% initial activity.
(§5) The concentration at which the tested sample produces 50% inhibition of COX-1 and/or COX-2 (IC50) was determined. The selectivity index (SI) was calculated also as IC50 (COX-1)/ (COX-2).

Another assay deals with T2, human recombinant COX-2 (Homo sapiens, UniProt P35354).
T2 construct: purchased
T2 sequence (P35354 18-604): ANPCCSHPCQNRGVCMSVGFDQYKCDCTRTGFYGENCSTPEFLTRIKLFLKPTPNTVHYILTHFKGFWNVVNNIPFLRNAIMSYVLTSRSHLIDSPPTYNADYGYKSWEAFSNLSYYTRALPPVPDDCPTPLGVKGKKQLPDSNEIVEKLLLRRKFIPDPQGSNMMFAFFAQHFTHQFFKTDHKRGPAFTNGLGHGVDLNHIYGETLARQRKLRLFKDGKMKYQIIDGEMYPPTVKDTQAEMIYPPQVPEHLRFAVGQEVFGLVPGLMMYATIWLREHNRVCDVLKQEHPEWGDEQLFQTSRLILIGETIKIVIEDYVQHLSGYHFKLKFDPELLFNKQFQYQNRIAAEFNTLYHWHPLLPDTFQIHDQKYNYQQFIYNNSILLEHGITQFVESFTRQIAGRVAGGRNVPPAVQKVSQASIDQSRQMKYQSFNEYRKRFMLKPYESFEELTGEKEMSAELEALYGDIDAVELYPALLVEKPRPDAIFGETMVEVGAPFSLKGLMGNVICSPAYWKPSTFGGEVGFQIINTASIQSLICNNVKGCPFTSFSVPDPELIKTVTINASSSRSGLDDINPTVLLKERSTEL
Briefly: COX-2 inhibitory activity, colourimetric COX inhibitor screening assay kit. Type of assay: biochemical. As to the method: as §1, §2, §3, §4, §5

The test system of assay [1] is RAW 264.7 macrophage cell line (NO). Briefly: nitric oxide (NO) inhibitory activity in lipopolysaccharide-stimulated macrophages. The class given is cell-based, murine. The settings on record: Mus musculus, RAW264.7; RAW 264.7 cells, 1 µg/mL lipopolysaccharide. As to the method: The detailed procedures were described in the supplementary file.
The cell was incubated at 37 °C in 5% carbon dioxide. RAW 264.7 cells were seeded onto a 96-well plate (1×10^5 cells/well) and incubated for 24 h. […] Followed by incubation, the cells stimulated with 1µg/mL of lipopolysaccharide for another 24 h. The supernatant was gently transferred to new 96-well plates and used for NO determination. L-N 6 - (1-iminoethyl) lysine hydrochloride), is used as standard drug. The absorbance (Abs) was measured in a microplate reader at 540 nm ^3. The percentage inhibition was calculated using the following formula:
Inhibition (%) = 1-[Control-Test] Control × 100.

T1 sequence (P05979 25-600): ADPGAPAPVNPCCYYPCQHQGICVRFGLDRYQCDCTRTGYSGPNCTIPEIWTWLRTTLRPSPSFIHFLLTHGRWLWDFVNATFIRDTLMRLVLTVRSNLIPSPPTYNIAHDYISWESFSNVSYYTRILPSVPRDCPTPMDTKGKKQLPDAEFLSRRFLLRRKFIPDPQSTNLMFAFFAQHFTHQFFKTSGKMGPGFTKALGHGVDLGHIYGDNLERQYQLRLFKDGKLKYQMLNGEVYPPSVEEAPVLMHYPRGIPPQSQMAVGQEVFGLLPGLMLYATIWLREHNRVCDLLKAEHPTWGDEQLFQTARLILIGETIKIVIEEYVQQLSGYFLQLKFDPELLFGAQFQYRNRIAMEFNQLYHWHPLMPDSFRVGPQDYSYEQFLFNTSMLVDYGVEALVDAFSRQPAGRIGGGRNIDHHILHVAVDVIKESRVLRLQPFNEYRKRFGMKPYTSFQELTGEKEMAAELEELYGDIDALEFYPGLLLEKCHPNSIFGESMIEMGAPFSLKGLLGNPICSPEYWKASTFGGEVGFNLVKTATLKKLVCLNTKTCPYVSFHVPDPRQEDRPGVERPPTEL

With `COc1cc(-c2coc3cc(O)c(OC)c(O)c3c2=O)cc(O)c1OC` [Irigenin (P3), 3′,5,7-trihydroxy-4′,5′,6 trimethoxyisoflavone], the IC50 on ovine COX-1 came to 35.2 ± 1.4 µM; on human recombinant COX-2 (human recombinant COX-2), 10.8 ± 0.86 µM; in assay [1], 42.5 ± 1.8 µM. Besides, on human recombinant COX-2 (selectivity index calculated as IC50 (COX-1)/(COX-2)), the “SI (COX-1/COX-2)” value is on record as 3.26.
